Assay [1] concerns the target T1, Fatty Acid Synthetase (Mus musculus, UniProt P19096).
T1 construct: 10% homogenates of CF1 male mouse liver; from tissue; host or cells: CF1 male mouse liver, 10% homogenate
The experiment in a line: In vitro liver enzyme study: fatty acid synthetase. The class given is biochemical. To be noted: in vitro CF1 liver. As for the experimental part: (§1) In vitro enzymatic studies were determined using 10% homogenates of CF1 male mouse liver with 50-200 μM of test drugs. In vivo enzymatic studies were determined using 10% homogenates of liver from CF1 male mice obtained after administering the agents for 16 days at a dose ranging from 2.5-20 mg/kg/day intraperitoneally. The liver homogenates for both in vitro and in vivo studies were prepared in 0.25M sucrose and 0.001M (ethylenedinitrilo)tetraacetic acid. Acetyl coenzyme A synthetase and adenosine triphosphate dependent citrate lyase activities were determined spectrophotometrically at 540 nm as the hydroxylamate of acetyl coenzyme A formed after 30 min at 37° C. Mitochondrial citrate exchange was determined by the procedure of Robinson et al [Eur. J. Biochem., 216, 63 (1970)] using ^14 C-sodium bicarbonate (41 mCi/mmol) incorporated into mitochondrial ^14 C-citrate after isolating rat mitochondria (9000 g×10 min) from the homogenates. The exchanges of the ^14 C-citrate were determined after incubating the mitochondrial fraction which was loaded with labeled citrate and test drugs for 10 min. Then the radioactivity was measured in the mitochondrial and supernantant fractions in scintillation fluid and expressed as a percentage. Cholesterol side chain oxidation was determined by the method of Kritchevsky and Tepper [Artherosclerosis, 18, 93 (1973)] using (26-^14 C) cholesterol (50 mCi/mmol) and mitochondria isolated from rat liver homogenates. […] Fatty acid synthetase activity was determined by the method of Brady et al [J. Biol. Chem., 235, 3093 (1960)] using [2-^14 C] malonyl-coenzyme A (37.5 mCi/mmol) which was incorporated into newly synthesized fatty acids that were extracted with ether and counted. Acyl transferase activity was determined with glycerol-3phosphate [L-2-^3 H(N)] […] HCl and counted. Phosphatidate phosphohydrolase activity was measured as the inorganic phosphate released after 30 min from phosphatidic acid by the method of Mavis et al [J. Lipid Res., 19, 467 (1978)]. […]

The test system of assay [2] is Cholesterol Side Chain Oxidation. In words: In vitro liver enzyme study: cholesterol side chain oxidation. The class given is biochemical, mouse. The protocol:
In vitro enzymatic studies were determined using 10% homogenates of CF1 male mouse liver with 50-200 μM of test drugs. In vivo enzymatic studies were determined using 10% homogenates of liver from CF1 male mice obtained after administering the agents for 16 days at a dose ranging from 2.5-20 mg/kg/day intraperitoneally. The liver homogenates for both in vitro and in vivo studies were prepared in 0.25M sucrose and 0.001M (ethylenedinitrilo)tetraacetic acid. Acetyl coenzyme A synthetase and adenosine triphosphate dependent citrate lyase activities were determined spectrophotometrically at 540 nm as the hydroxylamate of acetyl coenzyme A formed after 30 min at 37° C. Mitochondrial citrate exchange was determined by the procedure of Robinson et al [Eur. J. Biochem., 216, 63 (1970)] using ^14 C-sodium bicarbonate (41 mCi/mmol) incorporated into mitochondrial ^14 C-citrate after isolating rat mitochondria (9000 g×10 min) from the homogenates. The exchanges of the ^14 C-citrate were determined after incubating the mitochondrial fraction which was loaded with labeled citrate and test drugs for 10 min. Then the radioactivity was measured in the mitochondrial and supernantant fractions in scintillation fluid and expressed as a percentage. […] Acyl transferase activity was determined with glycerol-3phosphate [L-2-^3 H(N)] […] HCl and counted. […]

Assay [3] concerns the target T2, ATP Dependent Citrate Lyase (Mus musculus, UniProt Q91V92).
T2 construct: 10% homogenates of CF1 male mouse liver; from tissue; host or cells: CF1 male mouse liver, 10% homogenate
T2 sequence (Q91V92 1-1091): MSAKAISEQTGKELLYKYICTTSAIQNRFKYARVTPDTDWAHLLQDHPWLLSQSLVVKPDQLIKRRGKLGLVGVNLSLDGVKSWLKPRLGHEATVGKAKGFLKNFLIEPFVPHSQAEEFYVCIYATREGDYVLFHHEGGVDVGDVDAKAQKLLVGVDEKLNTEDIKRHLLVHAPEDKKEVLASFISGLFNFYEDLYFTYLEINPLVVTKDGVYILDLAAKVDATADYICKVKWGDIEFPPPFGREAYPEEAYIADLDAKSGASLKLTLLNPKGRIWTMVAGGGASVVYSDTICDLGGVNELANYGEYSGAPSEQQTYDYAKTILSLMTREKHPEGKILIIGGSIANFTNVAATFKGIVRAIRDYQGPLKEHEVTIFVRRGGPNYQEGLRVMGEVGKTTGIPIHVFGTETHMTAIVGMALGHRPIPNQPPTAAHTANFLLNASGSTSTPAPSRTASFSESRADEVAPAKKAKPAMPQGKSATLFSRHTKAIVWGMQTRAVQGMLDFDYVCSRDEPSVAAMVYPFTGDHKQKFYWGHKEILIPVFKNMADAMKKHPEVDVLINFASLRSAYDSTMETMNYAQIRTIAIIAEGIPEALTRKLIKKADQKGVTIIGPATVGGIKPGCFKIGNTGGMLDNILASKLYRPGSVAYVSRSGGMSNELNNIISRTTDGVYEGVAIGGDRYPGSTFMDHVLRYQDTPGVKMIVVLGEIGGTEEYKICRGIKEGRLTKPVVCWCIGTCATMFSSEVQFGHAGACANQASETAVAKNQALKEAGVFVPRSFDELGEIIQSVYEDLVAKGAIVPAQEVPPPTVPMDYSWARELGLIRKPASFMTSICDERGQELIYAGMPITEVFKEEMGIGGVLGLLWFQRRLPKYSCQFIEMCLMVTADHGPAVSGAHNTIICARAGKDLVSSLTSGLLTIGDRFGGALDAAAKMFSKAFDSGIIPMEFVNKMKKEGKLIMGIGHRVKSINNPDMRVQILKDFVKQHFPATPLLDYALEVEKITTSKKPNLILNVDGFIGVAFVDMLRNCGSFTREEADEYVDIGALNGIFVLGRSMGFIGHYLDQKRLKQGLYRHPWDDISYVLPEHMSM
The experiment in a line: In vivo liver enzyme study: ATP dependent citrate lyase. To be noted: CF1 liver after 16 days i.p. The protocol:
as §1

T1 sequence (P19096 whole entry): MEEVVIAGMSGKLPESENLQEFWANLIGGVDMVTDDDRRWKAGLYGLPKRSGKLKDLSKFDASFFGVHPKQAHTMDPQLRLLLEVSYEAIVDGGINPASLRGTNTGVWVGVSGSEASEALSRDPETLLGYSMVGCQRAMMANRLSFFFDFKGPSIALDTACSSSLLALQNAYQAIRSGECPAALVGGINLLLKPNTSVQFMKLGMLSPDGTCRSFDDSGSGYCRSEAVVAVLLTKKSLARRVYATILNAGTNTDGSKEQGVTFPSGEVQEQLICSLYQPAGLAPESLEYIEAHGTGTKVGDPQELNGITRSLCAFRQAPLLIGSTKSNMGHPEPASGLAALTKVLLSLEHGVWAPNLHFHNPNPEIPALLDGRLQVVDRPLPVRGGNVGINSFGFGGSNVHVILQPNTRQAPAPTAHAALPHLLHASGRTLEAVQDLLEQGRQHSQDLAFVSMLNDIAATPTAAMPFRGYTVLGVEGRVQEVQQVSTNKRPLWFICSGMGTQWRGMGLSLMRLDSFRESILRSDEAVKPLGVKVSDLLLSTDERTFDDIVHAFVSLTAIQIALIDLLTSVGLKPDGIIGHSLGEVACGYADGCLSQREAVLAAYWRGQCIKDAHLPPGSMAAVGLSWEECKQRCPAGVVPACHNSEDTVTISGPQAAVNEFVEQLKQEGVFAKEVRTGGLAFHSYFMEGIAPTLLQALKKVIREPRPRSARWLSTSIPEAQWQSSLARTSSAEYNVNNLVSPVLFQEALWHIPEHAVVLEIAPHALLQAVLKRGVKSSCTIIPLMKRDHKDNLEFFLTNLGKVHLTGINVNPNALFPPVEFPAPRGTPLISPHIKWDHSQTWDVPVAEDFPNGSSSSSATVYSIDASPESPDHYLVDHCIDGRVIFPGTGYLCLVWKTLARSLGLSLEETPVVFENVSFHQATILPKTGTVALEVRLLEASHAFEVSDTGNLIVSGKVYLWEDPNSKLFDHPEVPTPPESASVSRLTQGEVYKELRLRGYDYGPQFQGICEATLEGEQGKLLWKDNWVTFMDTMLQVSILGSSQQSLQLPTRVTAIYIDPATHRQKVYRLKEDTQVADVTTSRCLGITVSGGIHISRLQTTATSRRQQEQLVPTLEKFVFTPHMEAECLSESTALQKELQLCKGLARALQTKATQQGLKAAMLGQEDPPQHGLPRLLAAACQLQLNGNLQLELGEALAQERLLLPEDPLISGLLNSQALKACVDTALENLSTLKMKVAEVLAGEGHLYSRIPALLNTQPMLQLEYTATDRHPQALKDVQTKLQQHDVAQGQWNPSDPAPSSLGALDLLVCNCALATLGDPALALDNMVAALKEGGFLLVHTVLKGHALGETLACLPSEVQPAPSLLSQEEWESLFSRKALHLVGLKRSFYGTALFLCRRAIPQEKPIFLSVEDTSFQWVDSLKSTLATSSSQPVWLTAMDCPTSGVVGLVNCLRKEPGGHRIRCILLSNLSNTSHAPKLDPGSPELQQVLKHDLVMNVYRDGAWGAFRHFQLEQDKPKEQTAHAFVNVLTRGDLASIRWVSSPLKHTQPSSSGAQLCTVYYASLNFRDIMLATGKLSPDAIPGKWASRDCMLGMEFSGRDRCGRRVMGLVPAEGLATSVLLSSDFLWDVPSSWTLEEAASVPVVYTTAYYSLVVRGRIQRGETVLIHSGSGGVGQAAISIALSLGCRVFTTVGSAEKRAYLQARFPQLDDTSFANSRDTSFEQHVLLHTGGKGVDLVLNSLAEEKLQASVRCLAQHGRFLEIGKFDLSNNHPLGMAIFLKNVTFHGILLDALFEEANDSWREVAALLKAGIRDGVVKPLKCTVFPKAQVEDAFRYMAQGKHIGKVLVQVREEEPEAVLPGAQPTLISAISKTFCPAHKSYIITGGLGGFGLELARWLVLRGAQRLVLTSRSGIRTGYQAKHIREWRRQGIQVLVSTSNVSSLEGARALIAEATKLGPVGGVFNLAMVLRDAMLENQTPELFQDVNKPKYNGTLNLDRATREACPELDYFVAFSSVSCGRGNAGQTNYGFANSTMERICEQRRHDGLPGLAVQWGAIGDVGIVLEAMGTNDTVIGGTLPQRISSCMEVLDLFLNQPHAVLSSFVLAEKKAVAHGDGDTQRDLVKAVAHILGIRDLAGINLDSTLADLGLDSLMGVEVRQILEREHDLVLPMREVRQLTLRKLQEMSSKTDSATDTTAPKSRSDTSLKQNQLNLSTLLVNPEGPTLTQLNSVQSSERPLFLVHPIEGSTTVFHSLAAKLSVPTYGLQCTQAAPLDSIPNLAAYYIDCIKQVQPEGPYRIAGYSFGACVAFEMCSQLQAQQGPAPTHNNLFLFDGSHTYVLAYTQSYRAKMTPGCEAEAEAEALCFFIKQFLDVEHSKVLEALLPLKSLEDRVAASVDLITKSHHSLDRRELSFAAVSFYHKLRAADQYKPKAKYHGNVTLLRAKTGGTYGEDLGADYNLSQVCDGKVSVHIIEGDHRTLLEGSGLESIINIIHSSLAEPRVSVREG

As to “{Cu[(CH3)3 N.BH2 CO2 ]2.(CH3)3 N.BH2 COOH} [Compound I]”, the “Fatty Acid Synthetase” value in assay [1] (50 μM) came to 86 ± 7 Percent Control; in assay [1] (100 μM), 96 ± 8 Percent Control; in assay [1] (200 μM), 87 ± 7 Percent Control. Further, the “Cholesterol Side Chain Oxidation” value in assay [2] (in vitro CF1 liver, 100 μM) worked out at 152 ± 7 Percent Control. Also, the “degradation of cholesterol by oxidation of the side chain accelerated” value in assay [2] (in vitro, in the presence of drug) stood at 52%. Moreover, the “ATP Dependent Citrate Lyase” value in assay [3] (2.5 mg/kg) is listed as 70 ± 6% of control; in assay [3] (5.0 mg/kg), 79 ± 7% of control; in assay [3] (10 mg/kg), 72 ± 7% of control.
